The results in this text go back to the OPERA property sets (Mansouri et al. 2018).

For orientation: solubility means the dissolved amount per volume that the medium holds. Read a low solubility as a poorly soluble substance.

Converted amounts (≈) assume the structure as drawn.

As to `CNC(=S)[S-].[Na+]`, under “20 °C”, the solubility stood at 5590 mM.
For the setting “25 °C”, `CC(O)COCc1c(Cl)ccc(Cl)c1Cl` (centres undefined) registered a solubility of 0.271 mM (≈ 73 µg/mL).
In turn, `CNC(=O)Oc1c(C(C)(C)C)cc(C)cc1C(C)(C)C` showed a solubility (25 °C) of 0.0252 mM (≈ 7 µg/mL).
With `Cc1ccc(NC(=O)N(C)C)cc1Cl`, the solubility (20 °C) came to 0.329 mM (≈ 70 µg/mL).
The same measure, in the same setting: then `[Br-].[Br-].c1cc[n+]2c(c1)-c1cccc[n+]1CC2`, with 2060 mM.
As for `O=C(O)COc1nc(Cl)c(Cl)cc1Cl`, the solubility (25 °C) is 1.72 mM (≈ 440 µg/mL). This lies in the millimolar range.
The same measure, in the same setting: then `COP(=S)(OC)Oc1ccc([N+](=O)[O-])c(C)c1`, with 0.137 mM (≈ 38 µg/mL); and `CN(C)C(=O)Nc1cc(C(C)(C)C)on1`, with 3.74 mM (≈ 790 µg/mL).
`CN1C(=O)[C@]23CC4=CC=C[C@H](O)[C@H]4N2C(=O)[C@@]1(CO)SS3`: for the setting “30 °C”, the solubility is 0.214 mM (≈ 70 µg/mL).
`CCOC(=O)NCCOc1ccc(Oc2ccccc2)cc1` gave a solubility (20 °C) of 0.0199 mM (≈ 6 µg/mL).
In turn, `C=C(CC(Cl)(Cl)Cl)c1ccccc1` came in with a solubility (25 °C) of 0.0522 mM (≈ 12.3 µg/mL).
For `O=C[C@@H]1C[C@@H]2[C@@H]3[C@H]1[C@@]1(Cl)C(Cl)(Cl)[C@]3(Cl)[C@@]3(Cl)[C@@H]2[C@]31Cl`, the solubility was found to be 6.3e-05 mM (≈ 0.024 µg/mL). This lies in the double-digit nanomolar range.
The molecule `COP(=S)(OC)SCC(=O)N(c1ccc(Cl)cc1)C(C)C` came in with a solubility (20 °C) of 0.037 mM (≈ 13.6 µg/mL).
The molecule `O=CNC(Nc1ccc(Cl)c(Cl)c1)C(Cl)(Cl)Cl` (centres undefined) returned a solubility (20 °C) of 0.476 mM (≈ 160 µg/mL).
Still for that read-out and setting: the result for `Cc1cc(N(C)C)nc(Cl)n1` reads 54.8 mM (≈ 9400 µg/mL).
For the molecule `CCSC(=O)N(CC)CC`, for the setting “25 °C”, the solubility is 20.3 mM (≈ 3280 µg/mL).
On the same count and under the same terms, the result for `FC(F)(F)c1nc2c(Cl)c(Cl)ccc2[nH]1` reads 0.271 mM (≈ 69 µg/mL).
On to `CC(C)OP(=O)(OC(C)C)SCc1ccccc1`, for which the solubility (20 °C) amounted to 1.39 mM (≈ 400 µg/mL).
Consider `CCNc1nc(OC)nc(N(CC)CC)n1`, for which the solubility (26 °C) is 1 mM (≈ 226 µg/mL). This counts as millimolar.
`CC(C)=CCl` yielded a solubility (25 °C) of 11 mM (≈ 1000 µg/mL). In other words, the millimolar range.
Regarding `CCN(CC)c1nc(NC(C)C)nc(OC)n1`, the solubility (pH 3.0, 26 °C) was determined as 0.0129 mM (≈ 3.09 µg/mL).
Molecule `C=C1C[C@]23C[C@@]1(O)CC[C@H]2[C@@]12C=C[C@H](O)[C@@](C)(C(=O)O1)[C@H]2[C@@H]3C(=O)O` gave a solubility of 14.4 mM (≈ 5000 µg/mL). This counts as millimolar.
As to `CCC1COC(Cn2cncn2)(c2ccc(Cl)cc2Cl)O1` (centres undefined), the solubility (20 °C) came to 0.244 mM (≈ 80 µg/mL).
Still for that read-out and setting: then `CCOC(=O)Nc1cccc(OC(=O)Nc2ccccc2)c1`, with 0.0233 mM (≈ 7 µg/mL); and `C1CNCCN1.Cl.Cl`, with 2580 mM.
On the same count and under the same terms, then `CCCOC/C(=N\c1ccc(Cl)cc1C(F)(F)F)n1ccnc1`, with 36.1 mM (≈ 12500 µg/mL).
Same read-out and setting: the result for `CNC(=O)N(C)c1nnc(C(F)(F)F)s1` reads 8.74 mM (≈ 2100 µg/mL).
As for `CCCCc1c(C)nc(NCC)nc1OS(=O)(=O)N(C)C`, the solubility (25 °C) turned out to be 0.0695 mM (≈ 22 µg/mL).
On to `O=C(O)Cc1c[nH]c2ccccc12`, for which the solubility (20 °C) is 8.56 mM (≈ 1500 µg/mL).
The same measure, in the same setting: the result for `CNC(=O)Oc1ccccc1C1OCCO1` reads 26.9 mM (≈ 6000 µg/mL); that for `O=S1(=O)OCC2C(CO1)C1(Cl)C(Cl)=C(Cl)C2(Cl)C1(Cl)Cl` (centres undefined), 0.00114 mM (≈ 0.48 µg/mL).
Regarding `CCSC(=O)N(CC)C1CCCCC1`, under “22 °C”, the solubility is 0.395 mM (≈ 85 µg/mL).
`C#CC(C)N(C(=O)CCl)c1ccccc1` (centres undefined): the solubility (20 °C) is 2.26 mM (≈ 500 µg/mL).
Where the note is “25 °C”, `O=C(O)COc1cc(Cl)cc(Cl)c1` had a solubility of 4.35 mM (≈ 961 µg/mL).
Same read-out and setting: then `COC(=O)C1(O)c2ccccc2-c2ccc(Cl)cc21` (centres undefined), with 0.0655 mM (≈ 18 µg/mL).
`N#C/C(=N\OCC1OCCO1)c1ccccc1` had a solubility (20 °C) of 0.0861 mM (≈ 20 µg/mL).
The same measure, in the same setting: then `C=CCN(CC=C)C(=O)C(Cl)Cl`, with 24 mM (≈ 5000 µg/mL); and `CN(C(=O)COc1nc2ccccc2s1)c1ccccc1`, with 0.0134 mM (≈ 4 µg/mL).
As to `Cc1ccc(/N=C/N(C)/C=N/c2ccc(C)cc2C)c(C)c1`, the solubility (25 °C) worked out at 0.00341 mM (≈ 1 µg/mL).
The molecule `O=C(OCCOc1ccc(Cl)cc1Cl)c1ccccc1` registered a solubility of 0.154 mM (≈ 48 µg/mL).
For `CCC(C)N(C(=O)SCc1ccccc1)C(C)CC` (centres undefined), the solubility (30 °C) came out at 0.00895 mM (≈ 2.5 µg/mL).
As for `CCSCCSP(=O)(OC)OC`, where the note is “20 °C”, the solubility worked out at 14.3 mM (≈ 3300 µg/mL).
`COC(=O)C(C)N(C(=O)c1ccccc1)c1ccc(F)c(Cl)c1` (centres undefined) registered a solubility (23 °C) of 0.0857 mM (≈ 28.8 µg/mL).
Under “25 °C”, `CNP(=O)(OC)Oc1ccc(C(C)(C)C)cc1Cl` (centres undefined) returned a solubility of 0.686 mM (≈ 200 µg/mL).
The molecule `Cc1[nH]c(=O)n(C(C)C)c(=O)c1Br` gave a solubility of 8.7 mM (≈ 2150 µg/mL).
In turn, `CN(C)C(O)=Nc1ccc(-n2nc(C(C)(C)C)oc2=O)c(Cl)c1` registered a solubility (20 °C) of 0.0472 mM (≈ 16 µg/mL).
As for `Cn1cc(-c2ccccc2)c(=O)c(-c2cccc(C(F)(F)F)c2)c1`, the solubility (pH 7.0, 25 °C) worked out at 0.0364 mM (≈ 12 µg/mL). This lies in the double-digit micromolar range.
Under “20 °C”, `O=C1CCc2cccc3c2N1CC3` displayed a solubility of 23.1 mM (≈ 4000 µg/mL).
Same read-out and setting: then `CC(Cl)(Cl)[N+](=O)[O-]`, with 17.4 mM (≈ 2500 µg/mL).
For the molecule `COC(=O)C(C)Oc1ccc(Oc2ncc(C(F)(F)F)cc2Cl)cc1` (centres undefined), the solubility (25 °C) was 0.0248 mM (≈ 9.3 µg/mL).
`O=[N+]([O-])c1ccc(O/N=C/c2cc(Br)c(O)c(Br)c2)c([N+](=O)[O-])c1`: the solubility (20 °C) came to 0.000217 mM (≈ 0.1 µg/mL).
Same read-out and setting: the result for `CN(C)C(=O)SCCCCOc1ccccc1` reads 0.118 mM (≈ 30 µg/mL).
Under “25 °C”, `CCOP(=S)(OCC)SCSP(=S)(OCC)OCC` yielded a solubility of 0.0052 mM (≈ 2 µg/mL).
On the same count and under the same terms, then `Cc1nc(C)c(Cl)c(O)c1Cl`, with 0.0521 mM (≈ 10 µg/mL).
Molecule `COP(=S)(OC)Oc1ccc(Sc2ccc(OP(=S)(OC)OC)cc2)cc1` gave a solubility (20 °C) of 0.000579 mM (≈ 0.27 µg/mL). This counts as sub-micromolar.
With `O=C(O)c1cc(Cl)c(Cl)cc1Cl`, for the setting “25 °C”, the solubility was determined as 3.59 mM (≈ 810 µg/mL).
Still for that read-out and setting: the result for `CCN(CC)C(=O)CCl` reads 571 mM (≈ 85500 µg/mL); that for `CCOC(=O)CN(C(=O)CCl)c1c(CC)cccc1CC`, 0.337 mM (≈ 105 µg/mL).
On the same count and under the same terms, then `CCCCS/C(=N\c1cccnc1)SCc1ccc(C(C)(C)C)cc1`, with 0.00268 mM (≈ 1 µg/mL).
